Structures are written as SMILES. Where a name gives a salt, the structure may show the parent alone.

For one assay, the target named is T1, Mouse VCP (Mus musculus, UniProt Q01853).
T1 construct: histidine tag (N); made in house; host or cells: Sf-9 insect cells (baculovirus vector pVL1392)
T1 sequence (Q01853 whole entry): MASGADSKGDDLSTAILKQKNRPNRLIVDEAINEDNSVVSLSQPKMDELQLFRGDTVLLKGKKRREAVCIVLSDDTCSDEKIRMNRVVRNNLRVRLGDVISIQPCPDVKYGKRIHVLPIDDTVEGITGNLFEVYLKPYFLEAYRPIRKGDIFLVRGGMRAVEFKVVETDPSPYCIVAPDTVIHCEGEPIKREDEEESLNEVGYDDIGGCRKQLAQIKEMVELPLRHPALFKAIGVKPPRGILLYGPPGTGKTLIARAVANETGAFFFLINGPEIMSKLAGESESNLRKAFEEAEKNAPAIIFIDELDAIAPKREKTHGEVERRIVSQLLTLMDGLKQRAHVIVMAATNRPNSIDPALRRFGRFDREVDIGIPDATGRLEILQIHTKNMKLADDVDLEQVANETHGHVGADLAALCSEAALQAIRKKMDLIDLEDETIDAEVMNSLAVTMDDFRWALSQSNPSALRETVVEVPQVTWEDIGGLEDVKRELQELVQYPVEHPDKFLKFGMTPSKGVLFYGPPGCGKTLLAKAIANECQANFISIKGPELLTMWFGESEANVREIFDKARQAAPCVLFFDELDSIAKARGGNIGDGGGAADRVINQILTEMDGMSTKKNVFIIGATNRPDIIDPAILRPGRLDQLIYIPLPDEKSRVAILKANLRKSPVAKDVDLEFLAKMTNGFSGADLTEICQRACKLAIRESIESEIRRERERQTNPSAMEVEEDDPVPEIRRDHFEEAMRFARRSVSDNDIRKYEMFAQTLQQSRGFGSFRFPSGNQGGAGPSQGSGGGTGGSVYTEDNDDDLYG
In words: ATPase activity of purified His-tagged VCP, [γ-32P]ATP, liberated phosphate by liquid scintillation. Format: biochemical. To be noted: compounds of Comparative Examples; determined in the same manner as the Examples. As to the method:
In one aspect, the effect of VCP regulators for regulating ATPase activity is determined, for example by the following exemplary assay. Mouse VCP cDNA (the amino acid sequence is completely identical among mouse, rat and human) is added with a DNA sequence corresponding to a histidine tag at the amino-terminal, subcloned into a baculovirus vector pVL1392 (BD Bioscience), and expressed in Sf-9 insect cells. The protein is purified with a nickel column. After the purification the concentration of the protein is adjusted to 0.25-0.5 μg/ml and the protein is stored in a solution containing 50 mM TrisCl pH 8.0, 5 mM EDTA, 10% glycerol, and 15 mM DTT at 4° C. 500 ng of the purified VCP is mixed with 100 μM [γ-^32P]ATP (18.5 GBq/mmol) and the test substance in 20 μL of ATPase buffer (20 mM HEPES (pH7.4), 50 mM KCl, 5 mM MgCl2, 15 mM DTT), and incubated at 37° C. for 10 minutes. The enzyme reaction is stopped with addition of 200 μL of an ice-cold solution containing 7% TCA and 1 mM K2HPO4. 50μ of a solution containing 3.75% ammonium molybdate and 0.02M tungstate silicic/3 N H2SO4 is added, followed by 300 μL of n-butylacetic acid, and then the liberated phosphate is extracted into the organic layer. The reaction tube is centrifuged for 5 minutes at 20,000 g to separate the aqueous layer and the organic layer, 200 μL of the organic layer is taken, and the beta ray radiated from the liberated phosphate is quantified with liquid scintillation counter. By measuring the ATPase activity in the presence of the test substance at various concentrations, ATPase inhibitory activity of the test substance is measured.
Mouse VCP cDNA was added with a DNA sequence corresponding to histidine tag at the amino-terminal, subcloned into a baculovirus vector pVL1392 (BD Bioscience), and expressed in Sf-9 insect cells. The protein was purified with a nickel column (GE Healthcare). The concentration of the protein was adjusted to 0.25-0.5 μg/ml and the protein was stored in a solution containing 50 mM TrisCl pH 8.0, 5 mM EDTA, 10% glycerol, and 15 mM DTT.
The ATPase activity was determined as follows. 500 ng of the purified VCP was mixed with 100 μM [γ-32P]ATP (18.5 GBq/mmol) and the test substance in 20 μL of ATPase buffer (20 mM HEPES (pH7.4), 50 mM KCl, 5 mM MgCl2, 15 mM DTT), and incubated at 37° C. for 10 minutes.
The enzyme reaction was stopped with addition of 200 μL of an ice-cold solution containing 7% TCA and 1 mM K2HPO4. 50μ of a solution containing 3.75% ammonium molybdate and 0.02M tungstate silicic/3 NH2SO4 was added, followed by 300 μL of n-butylacetic acid, and then the liberated phosphate was extracted into the organic layer. The reaction tube was centrifuged for 5 minutes at 20,000 g to separate the aqueous layer and the organic layer, 200 μL of the organic layer was taken, and the beta ray radiated from the liberated phosphate was quantified with liquid scintillation counter.
By measuring the ATPase activity in the presence of the test substance at various concentrations, ATPase inhibitory activity of the test substance was measured. IC50 of the each test substance was calculated by applying the measured values to the equation below using GraphPad Prism (GraphPad Software).
As to `Nc1ccc(/N=N/c2ccccc2)c2ccc(S(=O)(=O)O)cc12` [Example 2, sodium salt], the IC50 was more than 10000 nM.
Turning to `N#Cc1cc(/N=N/c2ccc(-c3ccccc3)nc2)c(N)c2ccccc12` [Example 12, sodium salt], the half-maximal inhibitory concentration (IC50) is more than 10000 nM.
On the same count and under the same terms, the same measure for `Nc1c(/N=N/c2ccc(-c3ccccc3-c3ccccc3)nc2)cc(S(N)(=O)=O)c2ccccc12` [Example 14, sodium salt]: more than 10000 nM; for `Nc1ccc(S(=O)(=O)O)c2ccccc12` [Example 20, sodium salt]: more than 10000 nM; for `Nc1c(-c2ccccc2)cc(S(=O)(=O)O)c2ccccc12` [Example 26, sodium salt]: more than 10000 nM.

The same assay, now with this note: compounds of Examples; ATPase inhibitory activity; 500 ng VCP, 100 μM ATP, 37° C., 10 minutes.
For the molecule `Nc1c(/N=N/c2cccnc2)cc(S(=O)(=O)O)c2ccccc12` [Example 1, 4-amino-3-(pyridine-3-ylazo)naphthalene-1-sulfonic acid sodium salt], the IC50 worked out at 1580 nM.
Consider `COc1ccc(/N=N/c2cc(S(=O)(=O)O)c3ccccc3c2N)cn1` [Example 2, 4-amino-3-(6-methoxypyridine-3-ylazo)naphthalene-1-sulfonic acid sodium salt], for which the IC50 turned out to be 571 nM.
On the same count and under the same terms, the same measure for `Nc1c(/N=N/c2ccc(OCc3cccnc3)nc2)cc(S(=O)(=O)O)c2ccccc12` [Example 3, 3-(2-pyridinomethoxy-5-pyridinoazo)-4-amino-1-naphthalenesulfonic acid sodium salt]: 281 nM; for `Nc1c(/N=N/c2ccc(OCC3CCCO3)nc2)cc(S(=O)(=O)O)c2ccccc12` (stereo not shown) [Example 4, 4-amino-3-[6-(tetrahydrofuran-2-ylmethoxy)pyridine-3-ylazo]-1-naphthalenesulfonic acid sodium salt]: 407 nM.
Take `Nc1c(/N=N/c2ccc(OCC(F)(F)F)nc2)cc(S(=O)(=O)O)c2ccccc12` [Example 5, 4-amino-3-[6-(2,2,2-trifluoroethoxy)pyridine-3-ylazo]naphthalene-1-sulfonic acid sodium salt]: the IC50 amounted to 495 nM.
Still for that read-out and setting: the result for `COCCOc1ccc(/N=N/c2cc(S(=O)(=O)O)c3ccccc3c2N)cn1` [Example 6, 4-amino-3-[6-(2-methoxyethoxy)pyridine-3-ylazo]naphthalene-1-sulfonic acid sodium salt] reads 518 nM; that for `Nc1c(/N=N/c2ccc(-c3ccccc3)nc2)cc(S(=O)(=O)O)c2ccccc12` [Example 7, 4-amino-3-(6-phenylpyridine-3-ylazo)naphthalene-1-sulfonic acid sodium salt], 229 nM.
Still for that read-out and setting: the result for `Cc1ccc(-c2ccc(/N=N/c3cc(S(=O)(=O)O)c4ccccc4c3N)cn2)cc1` [Example 8, 4-amino-3-(6-p-tolylpyridine-3-ylazo)naphthalene-1-sulfonic acid sodium salt] reads 430 nM; that for `Cc1cccc(-c2ccc(/N=N/c3cc(S(=O)(=O)O)c4ccccc4c3N)cn2)c1` [Example 9, 4-amino-3-(6-m-tolylpyridine-3-ylazo)naphthalene-1-sulfonic acid sodium salt], 188 nM; that for `Cc1ccccc1-c1ccc(/N=N/c2cc(S(=O)(=O)O)c3ccccc3c2N)cn1` [Example 10, 4-amino-3-(6-o-tolylpyridine-3-ylazo)naphthalene-1-sulfonic acid sodium salt], 149 nM.
For `Nc1c(/N=N/c2ccc(-c3cccc(CN4CCOCC4)c3)nc2)cc(S(=O)(=O)O)c2ccccc12` [Example 11, 4-amino-3-[6-(3-morpholine-4-ylmethylphenyl)pyridine-3-ylazo]naphthalene-1-sulfonic acid sodium salt], the IC50 turned out to be 426 nM.
Take `Nc1c(/N=N/c2ccc(-c3ccccc3-c3ccccc3)nc2)cc(S(=O)(=O)O)c2ccccc12` [Example 12, 4-amino-3-(6-biphenyl-2-ylpyridine-3-ylazo)naphthalene-1-sulfonic acid sodium salt]: the IC50 turned out to be 116 nM.
Same read-out and setting: the same measure for `CCOc1ccncc1/N=N/c1cc(S(=O)(=O)O)c2ccccc2c1N` [Example 13, 4-amino-3-(4-ethoxypyridine-3-ylazo)naphthalene-1-sulfonic acid sodium salt]: 26600 nM; for `CC(=O)c1ccccc1-c1ccc(/N=N/c2cc(S(=O)(=O)O)c3ccccc3c2N)cn1` [Example 14, 3-[6-(2-acetylphenyl)pyridine-3-ylazo]-4-aminonaphthalene-1-sulfonic acid sodium salt]: 178 nM.
For `CC(=O)c1cccc(-c2ccc(/N=N/c3cc(S(=O)(=O)O)c4ccccc4c3N)cn2)c1` [Example 15, 3-[6-(3-acetylphenyl)pyridine-3-ylazo]-4-aminonaphthalene-1-sulfonic acid sodium salt], the half-inhibitory concentration (IC50) is 189 nM.
The same measure, in the same setting: the same measure for `Nc1c(/N=N/c2ccc(-c3cccs3)nc2)cc(S(=O)(=O)O)c2ccccc12` [Example 17, 4-amino-3-(6-thiophene-2-ylpyridine-3-ylazo)naphthalene-1-sulfonic acid sodium salt]: 143 nM; for `Nc1c(/N=N/c2ccc(-c3ccsc3)nc2)cc(S(=O)(=O)O)c2ccccc12` [Example 18, 4-amino-3-(6-thiophene-3-ylpyridine-3-ylazo)naphthalene-1-sulfonic acid sodium salt]: 163 nM; for `Nc1c(/N=N/c2ccc(-c3ccc(Cl)cc3Cl)nc2)cc(S(=O)(=O)O)c2ccccc12` [Example 19, 4-amino-3-[6-(2,4-dichlorophenyl)pyridine-3-ylazo]naphthalene-1-sulfonic acid sodium salt]: 178 nM.
On the same count and under the same terms, the same measure for `Nc1c(/N=N/c2ccc(-c3ccccc3C(F)(F)F)nc2)cc(S(=O)(=O)O)c2ccccc12` [Example 20, 4-amino-3-[6-(2-trifluoromethylphenyl)pyridine-3-ylazo]naphthalene-1-sulfonic acid sodium salt]: 170 nM; for `Nc1c(/N=N/c2ccc(-c3ccc(C(F)(F)F)cc3)nc2)cc(S(=O)(=O)O)c2ccccc12` [Example 21, 4-amino-3-[6-(4-trifluoromethylphenyl)pyridine-3-ylazo]naphthalene-1-sulfonic acid sodium salt]: 445 nM; for `Nc1c(/N=N/c2ccc(-c3ccccc3Cl)nc2)cc(S(=O)(=O)O)c2ccccc12` [Example 22, 4-amino-3-[6-(2-chlorophenyl)pyridine-3-ylazo]naphthalene-1-sulfonic acid sodium salt]: 197 nM.
In the case of `Nc1c(/N=N/c2ccc(-c3cccc(Cl)c3)nc2)cc(S(=O)(=O)O)c2ccccc12` [Example 23, 4-amino-3-[6-(3-chlorophenyl)pyridine-3-ylazo]naphthalene-1-sulfonic acid sodium salt], the half-maximal inhibitory concentration (IC50) was 324 nM.
With `Nc1c(/N=N/c2ccc(-c3ccc(Cl)cc3)nc2)cc(S(=O)(=O)O)c2ccccc12` [Example 24, 4-amino-3-[6-(4-chlorophenyl)pyridine-3-ylazo]naphthalene-1-sulfonic acid sodium salt], the IC50 turned out to be 540 nM.
On to `COc1ccccc1-c1ccc(/N=N/c2cc(S(=O)(=O)O)c3ccccc3c2N)cn1` [Example 25, 4-amino-3-[6-(2-methoxyphenyl)pyridine-3-ylazo]naphthalene-1-sulfonic acid sodium salt], for which the IC50 came out at 300 nM.
The same measure, in the same setting: the result for `COc1ccc(-c2ccc(/N=N/c3cc(S(=O)(=O)O)c4ccccc4c3N)cn2)cc1` [Example 26, 4-amino-3-[6-(4-methoxyphenyl)pyridine-3-ylazo]naphthalene-1-sulfonic acid sodium salt] reads 304 nM; that for `CC(C)Oc1ccccc1-c1ccc(/N=N/c2cc(S(=O)(=O)O)c3ccccc3c2N)cn1` [Example 27, 4-amino-3-[6-(2-isopropoxyphenyl)pyridine-3-ylazo]naphthalene-1-sulfonic acid sodium salt], 145 nM.

One may read the IC50 as the concentration that inhibits the measured activity by half.

The record behind these values is patent US9573887B2, “Naphthalene derivative” (Daito Chemix Corporation, priority 2010, dated 2017).
